Test results as given in patent US12569686B2, “Chronically implantable systems and methods for affecting cardiac contractility and/or relaxation” (Cardionomix, Inc., priority 2020, dated 2026).

Test system: normal, non-HF ovine model
Assay: Change in ventricle contractility (max dP/dt as surrogate) and beat-by-beat correlation of right and left ventricle contractility after an injection
Assay type: in vivo
Details: pressure max (dP/dt) used as surrogate for contractility, calcium at 5 mL
Description: The correlation was a heartbeat-by-heartbeat analysis. Pressure measurements, taken by a Millar catheter comprising a MEMS pressure sensor, in units of max (dP/dt) was used as a surrogate for contractility. The first change, a dobutamine injection, provided a very high contractility increase greater than 500%. The average correlation between right ventricle contractility and left ventricle contractility was very good at 0.91, where 1.00 is a perfect correlation. Accordingly, if a subject is given a dobutamine injection, measuring changes to right ventricle contractility can provide accurate information about changes to left ventricle contractility. The first change was repeated three times. The second change, calcium injection at 5 mL, provided a contractility increase of about 20%. […] The average correlation between right ventricle contractility and left ventricle contractility using a Millar (MEMS) sensor on a catheter was very good at 0.91. The average correlation between right ventricle contractility and left ventricle contractility using a fluid-filled lumen of a Swan-Ganz catheter in communication with an external pressure sensor was also very good at 0.87. […]

calcium [Calcium Injection]
Contractility % Increase: ~20% | Contractility % Increase (listed as calcium injection): about 20%
